The text below walks through data of patent publication US5807850A, “Therapeutic agent for osteoporosis and triazepine compound” (Japan Tobacco, Inc., priority 1994, dated 1998).

One experiment has as its system calvaria. In words: Inhibition of bone resorption (45Ca release from calvaria stimulated with hPTH (1-34), method of Raisz). The settings on record: 45Ca release, 50 nM hPTH (1-34), 3 days incubation; test concentrations 0.04, 0.2 and 1 μM; mean of 4 pairs; read-out: IC50 (inhibition of bone resorption). The format is cell-based, new born ICR mouse.
Excerpt: The determination of the inhibitory action on the bone resorption was basically in accordance with the method of Raisz [J. Clin. Invest. vol.
A new born ICR mouse (one or two days old) was intraperitoneally administered with 1.5μ Ci ^45 Ca (isotope of calcium as CaCl2 solution) and calvaria was aseptically removed the next day. The calvaria was split into two along the central suture line, and one of them was used as a control and the other was used as a test compound. The calvaria was preincubated at 37° C. for 2 days in BGJb medium [0.5 ml, Fitton-Jackson modification, GIBCO Laboratories, USA, containing bovine serum albumin 1 mg/ml] added with a test compound to the concentrations of 0.04 μM, 0.2 μM and 1 μM and then in the above-mentioned medium containing 50 nM hPTH (1-34) for further 3 days. After the incubation, the ^45 Ca radioactivity in the medium and the bone was determined, and the proportion (%) of ^45 Ca released from the bone into the medium was calculated by the following formula.
Using the bone obtained from the same mouse and treated in the same manner without adding a test compound, as a control, the proportion (%) relative to the control group was determined according to the following formula.
For orientation: IC50 means the concentration at which inhibition is half-maximal. Regarding `COc1ccc(CN2N=C(c3ccc(Cl)cc3)c3ccccc3-n3c(C)nnc32)cc1` [Example 77, 6-(4-Chlorophenyl)-4-(4-methoxybenzyl)-1-methyl-4H-2,3,4,5,10b-pentaazabenz[e]azulene], the half-inhibitory concentration (IC50) turned out to be 120 nM.

As for `Cc1nnc2n1-c1ccccc1C(c1ccc(Cl)cc1)=NN2Cc1cccnc1` [Example 98, 6-(4-Chlorophenyl)-1-methyl-4-(pyridin-3-ylmethyl)-4H-2,3,4,5,10b-pentaazabenz[e]azulene], the IC50 turned out to be 540 nM.

Still in this experiment, the particulars now being: Mus musculus, 72 h, read-out: IC50 (inhibition of bone resorption).
As for `Cc1nnc2n1-c1ccccc1C(c1ccc(Cl)cc1)=NN2Cc1ccc(F)cc1` [Example 59, 6-(4-Chlorophenyl)-4-(4-fluorobenzyl)-1-methyl-4H-2,3,4,5,10b-pentaazabenz[e]azulene], the IC50 turned out to be 680 nM. Take `C=C(Br)CN1N=C(c2ccc(Cl)cc2)c2ccccc2-n2c(C)nnc21` [Example 113, 4-(2-Bromo-2-propenyl)-6-(4-chlorophenyl)-1l-methyl-4H-2,3,4,5,10b-pentaazabenz[e]azulene]: the IC50 amounted to 500 nM.

Turning to `Cc1nnc2n1-c1ccc(Cl)cc1C(c1ccccc1)=NN2Cc1ccncc1` [Example 126, 8-Chloro-1-methyl-6-phenyl-4-(pyridin-4-ylmethyl)-4H-2,3,4,5,10b-pentaazabenz[e]azulene], the IC50 was 530 nM.

Staying with this experiment, now noted: Mus musculus, 72 h; 45Ca release, 50 nM hPTH (1-34), 3 days incubation; test concentrations 0.04, 0.2 and 1 μM; mean of 4 pairs; read-out: IC50 (inhibition of bone resorption).
`COc1ccc(CN2N=C(c3ccc(Cl)cc3)c3ccccc3-n3c(C)nnc32)cc1` [Example 40, 6-(4-Chlorophenyl)-4-(4-methoxybenzyl)-1-methyl-4H-2,3,4,5,10b-pentaazabenz[e]azulene]: the IC50 was determined as 120 nM.

For the molecule `COc1ccc(CN2N=C(c3ccc(Cl)cc3)c3ccccc3-n3c(C)nnc32)cc1OC` [Example 41, 6-(4-Chlorophenyl)-4-(3,4-dimethoxybenzyl)-1-methyl-4H-2,3,4,5,10b-pentaazabenz[e]azulene], the IC50 was determined as 800 nM. Same read-out and setting: as for `COc1ccc(CN2N=C(c3ccc(C)cc3)c3ccccc3-n3c(C)nnc32)cc1` [Example 46, 4-(4-Methoxybenzyl)-1-methyl-6-(4-methylphenyl)-4H-2,3,4,5,10b-pentaazabenz[e]azulene], the figure is 420 nM; as for `Cc1nnc2n1-c1ccccc1C(c1ccc(Cl)cc1)=NN2Cc1cccc(C#N)c1` [Example 56, 6-(4-Chlorophenyl)-4-(3-cyanobenzyl)-1-methyl-4H-2,3,4,5,10b-pentaazabenz[e]azulene], 250 nM; as for `Cc1nnc2n1-c1ccccc1C(c1ccc(Cl)cc1)=NN2Cc1ccccc1F` [Example 57, 6-(4-Chlorophenyl)-4-(2-fluorobenzyl)-1-methyl-4H-2,3,4,5,10b-pentaazabenz[e]azulene], 720 nM. As for `Cc1nnc2n1-c1ccccc1C(c1ccc(Cl)cc1)=NN2Cc1cccc(F)c1` [Example 58, 6-(4-Chlorophenyl)-4-(3-fluorobenzyl)-1-methyl-4H-2,3,4,5,10b-pentaazabenz[e]azulene], the IC50 worked out at 430 nM.

Regarding `Cc1nnc2n1-c1ccccc1C(c1ccc(Cl)cc1)=NN2Cc1cc(F)ccc1F` [Example 61, 6-(4-Chlorophenyl)-4-(2,5-difluorobenzyl)-1-methyl-4H-2,3,4,5,10b-pentaazabenz[e]azulene], the IC50 was found to be 810 nM. In the case of `Cc1nnc2n1-c1ccccc1C(c1ccc(Cl)cc1)=NN2Cc1cc(F)cc(F)c1` [Example 62, 6-(4-Chlorophenyl)-4-(3,5-difluorobenzyl)-1-methyl-4H-2,3,4,5,10b-pentaazbenz[e]azulene], the IC50 was found to be 710 nM. Regarding `Cc1nnc2n1-c1ccccc1C(c1ccc(Cl)cc1)=NN2Cc1ccc(F)c(F)c1` [Example 63, 6-(4-Chlorophenyl)-4-(3,4-difluorobenzyl)-1-methyl-4H-2,3,4,5,10b-pentaazabenz[e]azulene], the IC50 amounted to 740 nM. Regarding `Cc1nnc2n1-c1ccccc1C(c1ccc(Cl)cc1)=NN2Cc1cccc([N+](=O)[O-])c1` [Example 68, 6-(4-Chlorophenyl)-1-methyl-4-(3-nitrobenzyl)-4H-2,3,4,5,10b-pentaazabenz[e]azulene], the IC50 came out at 330 nM. Take `Cc1nnc2n1-c1ccccc1C(c1ccc(Cl)cc1)=NN2Cc1cccc(Cl)c1` [Example 70, 4-(3-Chlorobenzyl)-6-(4-chlorophenyl)-1-methyl-4H-2,3,4,5,10b-pentaazabenz[e]azulene]: the half-inhibitory concentration (IC50) worked out at 640 nM. Turning to `Cc1nnc2n1-c1ccccc1C(c1ccc(Cl)cc1)=NN2Cc1ccc(C#N)cc1` [Example 74, 6-(4-Chlorophenyl)-4-(4-cyanobenzyl)-1-methyl-4H-2,3,4,5,10b-pentaazabenz[e]azulene], the IC50 was 430 nM. Regarding `COc1cccc(CN2N=C(c3ccc(Cl)cc3)c3ccccc3-n3c(C)nnc32)c1` [Example 76, 6-(4-Chlorophenyl)-4-(3-methoxybenzyl)-1-methyl-4H-2,3,4,5,10b-pentaazabenz[e]azulene], the IC50 came to 560 nM. For `COc1cc(CN2N=C(c3ccc(Cl)cc3)c3ccccc3-n3c(C)nnc32)cc(OC)c1OC` [Example 79, 6-(4-Chlorophenyl)-1-methyl-4-(3,4,5-trimethoxybenzyl)-4H-2,3,4,5,10b-pentaazabenz[e]azulene], the IC50 came out at 570 nM. Regarding `Cc1nnc2n1-c1ccccc1C(c1ccc(Cl)cc1)=NN2Cc1ccc2c(c1)OCO2` [Example 81, 6-(4-Chlorophenyl)-1-methyl-4-(3,4-methylenedioxybenzyl)-4H-2,3,4,5,10b-pentaazabenz[e]azulene], the IC50 worked out at 590 nM.

`COc1ccc(CN2N=C(c3ccc(Cl)cc3)c3ccccc3-n3c(C)nnc32)cc1[N+](=O)[O-]` [Example 84, 6-(4-Chlorophenyl)-4-(4-methoxy-3-nitrobenzyl)-1-methyl-4H-2,3,4,5,10b-pentaazabenz[e]azulene]: the IC50 stood at 670 nM. As to `COc1ccc(CN2N=C(c3ccc(Cl)cc3)c3ccccc3-n3c(C)nnc32)cc1Cl` [Example 85, 4-(3-Chloro-4-methoxybenzyl)-6-(4-chlorophenyl)-1-methyl-4H-2,3,4,5,10b-pentaazabenz[e]azulene], the IC50 turned out to be 860 nM. As for `Cc1cccc(CN2N=C(c3ccc(Cl)cc3)c3ccccc3-n3c(C)nnc32)c1` [Example 88, 6-(4-Chlorophenyl)-1-methyl-4-(3-methylbenzyl)-4H-2,3,4,5,10b-pentaazabenz[e]azulene], the IC50 was found to be 590 nM. Take `Cc1nnc2n1-c1ccccc1C(c1ccc(Cl)cc1)=NN2Cc1ccccc1` [Example 94, 4-Benzyl-6-(4-chlorophenyl)-1-methyl-4H-2,3,4,5,10b-pentaazabenz[e]azulene]: the concentration for half-maximal inhibition (IC50) amounted to 560 nM.

Turning to `Cc1nc(CN2N=C(c3ccc(Cl)cc3)c3ccccc3-n3c(C)nnc32)cs1` [Example 100, 6-(4-Chlorophenyl)-4-(2-methyl-1,3-thiazol-4-ylmethyl)-1-methyl-4H-2,3,4,5,10b-pentaazabenz[e]azulene], the concentration for half-maximal inhibition (IC50) stood at 710 nM.

Regarding `Cc1nnc2n1-c1ccccc1C(c1ccc(Cl)cc1)=NN2CC1CC1` [Example 106, 6-(4-Chlorophenyl)-4-cyclopropylmethyl-1-methyl-4H-2,3,4,5,10b-pentaazabenz[e]azulene], the 50% inhibitory concentration (IC50) worked out at 830 nM. For `C=C(C)CN1N=C(c2ccc(Cl)cc2)c2ccccc2-n2c(C)nnc21` [Example 111, 6-(4-Chlorophenyl)-1-methyl-4-(2-methyl-2-propenyl)-4H-2,3,4,5,10b-pentaazabenz[e]azulene], the IC50 is 510 nM. In the case of `C=C(Cl)CN1N=C(c2ccc(Cl)cc2)c2ccccc2-n2c(C)nnc21` [Example 112, 6-(4-Chlorophenyl)-4-(2-chloro-2-propenyl)-1l-methyl-4H-2,3,4,5,10b-pentaazabenz[e]azulene], the IC50 is 380 nM.

As for `Cc1nnc2n1-c1ccccc1C(c1ccc(Cl)cc1)=NN2Cc1ccncc1` [Example 120, 6(4-Chlorophenyl)-1-methyl-4-(pyridin-4-ylmethyl)-4H-2,3,4,5,10b-pentaazabenz[e]azulene], the concentration for half-maximal inhibition (IC50) was found to be 220 nM. On to `Cc1nnc2n1-c1ccccc1C(c1ccc(Cl)cc1)=NN2Cc1ccc(S(C)(=O)=O)cc1` [Example 121, 6-(4-Chlorophenyl)-1-methyl-4-(4-methylsulfonylbenzyl)-4H-2,3,4,5,10b-pentaazabenz[e]azulene], for which the IC50 amounted to 140 nM. Consider `Cc1nnc2n1-c1ccccc1C(c1ccc(Cl)cc1)=NN2Cc1ccc([N+](=O)[O-])cc1` [Example 122, 6-(4-Chlorophenyl)-1-methyl-4-(4-nitrobenzyl)-4H-2,3,4,5,10b-pentaazabenz[e]azulene], for which the IC50 was 720 nM.

Turning to `Cc1nnc2n1-c1ccccc1C(c1ccc(Cl)cc1)=NN2Cc1cc(Cl)nc(Cl)c1` [Example 123, 6-(4-Chlorophenyl)-4-(2,6-dichloropyridin-4-ylmethyl)-1-methyl-4H-2,3,4,5,10b-pentaazabenz[e]azulene], the IC50 amounted to 650 nM. Consider `Cc1nnc2n1-c1ccccc1C(c1ccccc1)=NN2Cc1cccnc1` [Example 128, 1-Methyl-6-phenyl-4-(pyridin-3-ylmethyl)-4H-2,3,4,5,10b-pentaazabenz[e]azulene], for which the 50% inhibitory concentration (IC50) is 930 nM. As to `Cc1nnc2n1-c1ccccc1C(c1ccccc1)=NN2Cc1ccncc1` [Example 129, 1-Methyl-6-phenyl-4-(pyridin-4-ylmethyl)-4H-2,3,4,5,10b-pentaazabenz[e]azulene], the IC50 was 780 nM. Same read-out and setting: as for `Cc1nnc2n1-c1ccc([N+](=O)[O-])cc1C(c1ccccc1)=NN2Cc1ccncc1` [Example 134, 1-Methyl-8-nitro-6-phenyl-4-(pyridin-4-ylmethyl)-4H-2,3,4,5,10b-pentaazabenz[e]azulene], the figure is 180 nM; as for `Cc1ccc(C2=NN(Cc3ccncc3)c3nnc(C)n3-c3ccccc32)cc1` [Example 135, 1-Methyl-6-(4-methylphenyl)-4-(pyridin-4-ylmethyl)-4H-2,3,4,5,10b-pentaazabenz[e]azulene], 410 nM.

Take `Cc1ccc(C2=NN(Cc3cccc(C#N)c3)c3nnc(C)n3-c3ccccc32)cc1` [Example 136, 4-(3-Cyanobenzyl)-1-methyl-6-(4-methylphenyl)-4H-2,3,4,5,10b-pentaazabenz [e]azulene]: the IC50 was 590 nM.
